Experimental data from patent publication US8071654B2, “Inhibitors of thromboxane formation and action” (priority 2000, dated 2011).

Tests used:
TxB2 formation = experiment: metabolism of [3H]-PGH2 to TxB2 by human platelets, TLC; format: cell-based; settings: two doses of PBT-3, TLC profile
Method: 0.5 ml of platelet suspension was added to siliconized glass tubes (four at a time) and heated with magnetic stirring to 37° for 1 min in a platelet aggregometer (PAP-4C). Either vehicle alone (ethanol, 1 μl) or hepoxilin analog was then added, followed two min later by agonist (collagen: 2 μg; PGH2: 100 ng/0.5 ml; U46619: 10 ng/0.5 ml or I-BOP: 2 ng/0.5 ml). The response was recorded for the next 5 min. In experiments where analysis of TxB2 and HHT were to be made by HPLC, the platelet suspension at the end of the experiment was diluted with ethyl acetate, 100 ng of prostaglandin B1 was added as internal standard, and the mixture was acidified to pH 3 with 0.1 N HCl. After centrifugation, the organic layer was separated, washed twice with water to neutrality, and evaporated to dryness. Half of the sample was taken and was resuspended in 1 ml ethyl acetate containing 20 μg ADAM reagent, and was left in the dark for 2 h (38). […] In experiments where the conversion of tritiated PGH2 was to be monitored, the procedure described above was repeated with tritiated PGH2 instead of unlabeled PGH2. After extraction of the sample as described above, the radiolabeled compounds were analyzed by TLC. Dose response curves for varying amounts of test compounds were generated and the data expressed as % inhibition of collagen-induced platelet aggregation. […]

TX synthase = target: T1, TX synthase (Homo sapiens, UniProt P24557); experiment: collagen-evoked TxB2 (and HHT) formation in washed human platelets, HPLC; format: cell-based; settings: for TX enzyme activity (% of control values, mean ± SD): n = 3, TxB2 and HHT
T1 construct: endogenous in cells; host or cells: washed human platelets
T1 sequence (P24557 1-533): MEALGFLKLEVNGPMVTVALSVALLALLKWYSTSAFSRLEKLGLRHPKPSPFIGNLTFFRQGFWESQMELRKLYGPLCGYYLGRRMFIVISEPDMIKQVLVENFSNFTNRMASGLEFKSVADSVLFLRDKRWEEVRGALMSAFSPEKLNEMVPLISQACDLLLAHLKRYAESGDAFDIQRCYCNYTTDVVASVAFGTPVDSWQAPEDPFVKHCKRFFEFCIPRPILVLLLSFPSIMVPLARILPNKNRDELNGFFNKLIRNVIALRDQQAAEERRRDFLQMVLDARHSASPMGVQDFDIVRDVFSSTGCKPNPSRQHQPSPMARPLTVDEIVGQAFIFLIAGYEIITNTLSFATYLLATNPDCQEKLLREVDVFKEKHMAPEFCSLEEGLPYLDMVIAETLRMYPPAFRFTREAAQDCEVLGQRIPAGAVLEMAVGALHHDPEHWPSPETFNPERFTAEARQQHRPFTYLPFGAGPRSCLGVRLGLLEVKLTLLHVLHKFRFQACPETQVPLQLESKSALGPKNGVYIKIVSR
Method: 0.5 ml of platelet suspension was added to siliconized glass tubes (four at a time) and heated with magnetic stirring to 37° for 1 min in a platelet aggregometer (PAP-4C). Either vehicle alone (ethanol, 1 μl) or hepoxilin analog was then added, followed two min later by agonist (collagen: 2 μg; PGH2: 100 ng/0.5 ml; U46619: 10 ng/0.5 ml or I-BOP: 2 ng/0.5 ml). The response was recorded for the next 5 min. In experiments where analysis of TxB2 and HHT were to be made by HPLC, the platelet suspension at the end of the experiment was diluted with ethyl acetate, 100 ng of prostaglandin B1 was added as internal standard, and the mixture was acidified to pH 3 with 0.1 N HCl. After centrifugation, the organic layer was separated, washed twice with water to neutrality, and evaporated to dryness. Half of the sample was taken and was resuspended in 1 ml ethyl acetate containing 20 μg ADAM reagent, and was left in the dark for 2 h (38). The solvent was then evaporated and the residue was acetylated with a solution of pyridine/acetic anhydride (3/1, v/v) during 16 h at 23°. The reagents were evaporated to dryness and the residue was resuspended in acetonitrile/water for HPLC analysis. In experiments where the conversion of tritiated PGH2 was to be monitored, the procedure described above was repeated with tritiated PGH2 instead of unlabeled PGH2. After extraction of the sample as described above, the radiolabeled compounds were analyzed by TLC. Dose response curves for varying amounts of test compounds were generated and the data expressed as % inhibition of collagen-induced platelet aggregation. Each point was investigated 5 times and statistical analysis of the data was carried out using Macintosh Statview statistical software.
Measurement of eicosanoids formed by platelets during treatment with collagen or the TP receptor agonists in the presence or absence of PBT-3 was carried out by HPLC after appropriate derivatization with a fluorescent tag (anthracyl diazomethane—ADAM) which forms a fluorescent ester (44). The method was adapted to measure the following compounds: TxB2, HHT, 12-HETE and M. The platelet suspension at the end of the experiment was mixed with ethyl acetate, 100 ng of prostaglandin B1 was added as internal standard and the mixture was acidified to pH 3 with 0.1 N HCl. After centrifugation, the organic layer was separated, washed twice with water to neutrality, and evaporated to dryness. The residue was resuspended in ethyl acetate and half of the sample was taken. It was diluted to 0.2 ml with ethyl acetate containing 20 μg ADAM reagent, and was left in the dark for 2 h. The solvent was then evaporated and the residue was acetylated with a solution of pyridine/acetic anhydride (3/1, v/v) for 16 h at 23°. The reagents were evaporated to dryness and the residue was resuspended in acetonitrile/water for HPLC analysis. Dose response curves for varying amounts of test compounds were generated and the data were expressed as % inhibition of agonist-induced platelet aggregation. Each point was investigated 3 times and statistical analysis of the data was carried out using Macintosh Statview statistical software.
Analysis of the anthryl (ADAM)-acetate derivative of TxB2, HHT and 12 HETE in the extracted platelet samples was carried out on a Hewlett Packard (1100 series) HPLC to which was attached a Shimadzu fluorescent detector (RF-10AXL). The detector was operated with excitation at 364 nm, emission at 411 nm. Chromatographic separation of the compound was carried out on a Waters C18 Novapak column (3.9×300 mm) using acetonitrile/water 80/20 at injection with a linear gradient to 100% acetonitrile during 20 min. TLC separation of tritiated platelet extracts was carried out on 20 cm silica gel G glass plates (Brinkman), with chloroform/methanol/acetic acid/water (90/9/1/0.65, v/v) as developing solvent in a paper lined glass tank at 23°. […]

TX enzyme activity (% of control values, mean ± SD) (TX synthase; PBT-3 0.05 μM): 94.2 ± 15.2^NS % of control | TX enzyme activity (% of control values, mean ± SD) (TX synthase; PBT-3 0.30 μM): 65.7 ± 6.0 % of control | TX enzyme activity (% of control values, mean ± SD) (TX synthase; PBT-3 0.60 μM): 41.0 ± 4.7 % of control | TX enzyme activity (% of control values, mean ± SD) (TX synthase; PBT-3 3.00 μM): 29.9 ± 6.7 % of control | inhibition of TxB2 formation in platelets, in words (TX synthase; Table 1, last column): significantly inhibited | IC50 (TX synthase; washed human platelets, read-out: IC50 for block of collagen-evoked formation of thromboxane): 800 nM
Compound: CCCCC/C=C\CC1CC1[C@@H](O)/C=C\C/C=C\CCCC(=O)OC (stereo partly drawn) [PBT-3, 10(S)-hydroxy-11,12-cyclopropyl-eicosa-5Z,8Z,14Z-trienoic acid methyl ester]
inhibition of formation of tritiated TxB2 from [3H]-PGH2 (TxB2 formation): inhibitory action
